Literature values in US20080255132A1, “Combination Therapy Comprising the Use of Et-743 and Paclitaxel for Treating Cancer” (priority 2003, published 2008).

Columns and labels:
[1] = system: human tumor xenografts, including melanoma and ovarian and breast carcinoma; conditions: human tumor xenografts grown in athymic mice
[2] = system: sarcoma and breast and ovarian carcinoma; conditions: phase I, 1-, 3-, 24-, 72-hour i.v. infusion and 1 hour daily x5 schedules

COc1cc2c(cc1O)CCN[C@]21CS[C@@H]2c3c(OC(C)=O)c(C)c4c(c3[C@H](COC1=O)N1[C@@H]2[C@H]2c3c(cc(C)c(OC)c3O)C[C@@H]([C@@H]1O)N2C)OCO4 [ET-743, ecteinascidin 743]
Antineoplastic activity [1]: potent antineoplastic activity | Responses [2]: Promising responses
